Reference: patent US8603965B2, “Pharmaceutical composition for the prophylaxis and treatment of HIV infection and its use” (priority 2006, dated 2013)
“And” between values parts separate entries of the source, which are not always exact repeats. Identical values can stand only once. “Also recorded” adds a separate entry of the source. Like-named read-outs stand apart in the source and are kept apart here. Ends that are not written are not given here.

Tests used:
[1] = test system: HIV; settings: HIV fusion assay; cited from earlier work
[2] = Pharmacokinetic study of single subcutaneous or intravenous injection of FS-01 in rhesus monkey; type: in vivo; settings: 1.2 mg/kg
Method: Detailed experiment method as follows: three rhesus monkeys, crossover design, with a washout period of more than two weeks. Rhesus monkey was administrated 1.2 mg/kg of FS-01 by subcutaneously or intravenously injection, 1 ml of blood sample were collected at different point of time (0, 1, 5, 15, 30 min, 1, 2, 4, 6, 8, 12, 24 and 48 h). Drug concentration at different time point in blood sample was quantitatively analyzed by LC\MS\MS, utilizing iodine labeled FS-01 as internal standard, C18 column, aqueous solution containing 0.1% TFA and acetonitrile as mobile phase. Pharmacokinetics analysis was carried out according to fitting model based on the concentration of FS-01, determined the half-life (T1/2) in plasma, bioavailability and other pharmacokinetics parameters (FIG. 1).

[3] = Pharmacokinetic study of single subcutaneous injection of pharmaceutical composition containing FS-01 in healthy volunteers; type: in vivo, human
Method: 3-period crossover Latin square design was employed, 12 subjects were randomly divided into three groups, four subjects per group, and were sequentially abdomenal and subcutaneously injected by pharmaceutical composition containing 10, 20, 30 mg of FS-01, doses are listed in Table 2. Blood samples were collected at 30-5 min pre-dose, 5, 15, 30 min, 1, 2, 4, 6, 8, 12, 24, 48 and 72 h after injection. The concentration of FS-01 in blood sample was quantitatively analyzed by LC\MS\MS.

[4] = test system: HIV; assay: Multidose subcutaneous injection once daily for 14 days in HIV positive patients (Example 4); type: in vivo, human; settings: 1-30 mg once daily
Method: Twenty-one subjects were divided into 5 groups, received pharmaceutical composition containing 1 mg, 5 mg, 10 mg, 20 mg, 30 mg FS-01 once daily, for 14 days. Determined the viral load before injection and after injection.

[5] = test system: HIV; assay: Multidose subcutaneous injection once daily for 28 days in HIV positive patients (Example 5); type: in vivo, human; settings: 10 mg and 20 mg once daily
Method: (§1) Nineteen HIV patients were divided into two groups, were subcutaneously injected with pharmaceutical composition containing 10 mg and 20 mg of FS-01 once daily, for 28 days. The data was analyzed together with that in Example 4.

[6] = Half-life of FS-01 in HIV patient; settings: human, in vivo, subcutaneous, 20 mg
Method: as §1
It has been shown in the result that the pharmaceutical composition of the present invention has good safety profile. […] Plasma viral load in HIV infected patient with baseline less than <10,000 c/ml decreased by 1.2 log in 20 mg group 14 days after administration (see FIG. 3). And it is recommended for infected patient with baseline viral load more than 10,000 c/ml to receive combination treatment with other antiviral agents, such as antiretroviral inhibitors or protease inhibitors.

[7] = plasma, 24 h, read-out: C24 (plasma concentration at 24 h)
[8] = healthy volunteers, 10, 20, 30 mg

Row | Substance | EC50 relative to T-20 [1] [times lower than T-20] | Tmax [2] [h-2 h] | Cmax ([2]; plasma) | level at 24 h [2, 7] [ng/mL] | level at time molar at 24 h [2, 7] [nM] | Tmax ([2]; plasma, read-out: Tmax) [h] | half-life ([2]; plasma, subcutaneous or intravenous injection) [h] | bioavailability ([2]; plasma, subcutaneous or intravenous injection, read-out: bioavailability (BA)) [%] | clearance rate as dose increases [3, 8] | pharmacokinetic process (linearity) [3, 8] | plasma drug concentration after 72 hours ([3]; healthy volunteers, 72 hours after dosing) | Cmax ([3]; human, plasma, sc, 10 mg, healthy volunteers, 10 mg (low dose), single subcutaneous injection) | Cmax ([3]; human, plasma, sc, 20 mg, healthy volunteers, 20 mg (middle dose), single subcutaneous injection) | Cmax ([3]; human, plasma, sc, 30 mg, healthy volunteers, 30 mg (high dose), single subcutaneous injection) | half-life ([3]; human, plasma, sc, healthy volunteers, single subcutaneous injection) [h] | side effects [4] | side effects / safety profile [5] | half-life [6] [h]
1 | X-SWETWEREIENYTKQIYKILEESQEQQDRNEKDLLE-Z (not fully specified (N-terminus, C-terminus); printed as X-SWETWEREIENYTKQIYKILEESQEQQDRNEKDLLE-Z) | 20 | – | – | – | – | – | – | – | – | – | – | – | – | – | – | – | – | –
2 | Ac-SWETWEREIENYTRQIYRILEESQEQQDRNERDLLE-NH2 [FS-01] | – | 0.25 | 508 ng/mL and 108 nM | > 9.8 | > 2.07 | 0.25 to 2 | 8.13 ± 3.1 | 50 | did not slow down; also recorded: did not decrease | linear pattern; also recorded: linear relation | approaching baseline; also recorded: approached to baseline | 104 ng/mL and 22 nM | 213 ng/mL and 45.1 nM | 250 ng/mL and 52.9 nM | 20 ± 18.6 | No signs of substantial side effects | No signs of substantial side effects | 39
